Measured values as given in PubChem BioAssay AID1259407 (Chemical Carcinogenesis Research Information System (CCRIS), 2018).
Active and inactive are the calls of the source. How the calls were made is not given here.

System: CCRIS mutagenicity, Ames/micronucleus/aberration tests
Test: CCRIS mutagenicity studies
[1] = Test System: AMES SALMONELLA TYPHIMURIUM, Strain/Indicator: TA98, Metabolic Activation: NONE, Method: STANDARD PLATE
[2] = Test System: AMES SALMONELLA TYPHIMURIUM, Strain/Indicator: TA98, Metabolic Activation: RAT, LIVER, S-9, AROCLOR 1254, Method: STANDARD PLATE
[3] = Test System: AMES SALMONELLA TYPHIMURIUM, Strain/Indicator: TA100, Metabolic Activation: NONE, Method: STANDARD PLATE
[4] = Test System: AMES SALMONELLA TYPHIMURIUM, Strain/Indicator: TA100, Metabolic Activation: RAT, LIVER, S-9, AROCLOR 1254, Method: STANDARD PLATE
[5] = Test System: AMES SALMONELLA TYPHIMURIUM, Strain/Indicator: TA1535, Metabolic Activation: RAT, LIVER, S-9, AROCLOR 1254, Method: STANDARD PLATE
[6] = Test System: AMES SALMONELLA TYPHIMURIUM, Strain/Indicator: TA1537, Metabolic Activation: NONE, Method: STANDARD PLATE
[7] = Test System: AMES SALMONELLA TYPHIMURIUM, Strain/Indicator: TA1537, Metabolic Activation: RAT, LIVER, S-9, AROCLOR 1254, Method: STANDARD PLATE
[8] = Test System: AMES SALMONELLA TYPHIMURIUM, Strain/Indicator: TA97, Metabolic Activation: HAMSTER, LIVER, S-9, AROCLOR 1254 (10 OR 30%), Method: PREINCUBATION
[9] = Test System: AMES SALMONELLA TYPHIMURIUM, Strain/Indicator: TA97, Metabolic Activation: NONE, Method: PREINCUBATION
[10] = Test System: AMES SALMONELLA TYPHIMURIUM, Strain/Indicator: TA97, Metabolic Activation: RAT, LIVER, S-9, AROCLOR 1254 (10 OR 30%), Method: PREINCUBATION
[11] = Test System: AMES SALMONELLA TYPHIMURIUM, Strain/Indicator: TA98, Metabolic Activation: HAMSTER, LIVER, S-9, AROCLOR 1254 (10 OR 30%), Method: PREINCUBATION
[12] = Test System: AMES SALMONELLA TYPHIMURIUM, Strain/Indicator: TA98, Metabolic Activation: NONE, Method: PREINCUBATION
[13] = Test System: AMES SALMONELLA TYPHIMURIUM, Strain/Indicator: TA98, Metabolic Activation: RAT, LIVER, S-9, AROCLOR 1254 (10 OR 30%), Method: PREINCUBATION
[14] = Test System: AMES SALMONELLA TYPHIMURIUM, Strain/Indicator: TA100, Metabolic Activation: HAMSTER, LIVER, S-9, AROCLOR 1254 (10 OR 30%), Method: PREINCUBATION
[15] = Test System: AMES SALMONELLA TYPHIMURIUM, Strain/Indicator: TA100, Metabolic Activation: NONE, Method: PREINCUBATION
[16] = Test System: AMES SALMONELLA TYPHIMURIUM, Strain/Indicator: TA100, Metabolic Activation: RAT, LIVER, S-9, AROCLOR 1254 (10 OR 30%), Method: PREINCUBATION
[17] = Test System: AMES SALMONELLA TYPHIMURIUM, Strain/Indicator: TA1535, Metabolic Activation: HAMSTER, LIVER, S-9, AROCLOR 1254 (10 OR 30%), Method: PREINCUBATION
[18] = Test System: AMES SALMONELLA TYPHIMURIUM, Strain/Indicator: TA1535, Metabolic Activation: NONE, Method: PREINCUBATION
[19] = Test System: AMES SALMONELLA TYPHIMURIUM, Strain/Indicator: TA1535, Metabolic Activation: RAT, LIVER, S-9, AROCLOR 1254 (10 OR 30%), Method: PREINCUBATION

S=C([S-])NCCNC(=S)[S-].[Zn+2]
mutagenic call [1]: inactive; negative
mutagenic call [2]: inactive; negative
mutagenic call [3]: inactive; negative
mutagenic call [4]: inactive; negative
mutagenic call (Test System: AMES SALMONELLA TYPHIMURIUM, Strain/Indicator: TA1535, Metabolic Activation: NONE, Method: STANDARD PLATE): inactive; negative
mutagenic call [5]: inactive; negative
mutagenic call [6]: inactive; negative
mutagenic call [7]: inactive; negative
mutagenic call (Test System: E. COLI, Strain/Indicator: WP2, Metabolic Activation: NONE, Method: STANDARD PLATE): inactive; negative
mutagenic call (Test System: E. COLI, Strain/Indicator: WP2, Metabolic Activation: RAT, LIVER, S-9, AROCLOR 1254, Method: STANDARD PLATE): inactive; negative

CCCCOc1cc(Cl)ccc1C(=O)NOC(C)=O
mutagenic call [3]: active; positive
mutagenic call (Test System: AMES SALMONELLA TYPHIMURIUM, Strain/Indicator: TA100, Metabolic Activation: RAT, S-9, AROCLOR, Method: STANDARD PLATE): active; positive

CN(C(=O)CN(CCO)CC(=O)N(C)C(C)(C)Cc1ccccc1)C(C)(C)Cc1ccccc1
mutagenic call [8]: inactive; negative
mutagenic call [9]: inactive; negative
mutagenic call [10]: inactive; negative
mutagenic call [11]: inactive; negative
mutagenic call [12]: inactive; negative
mutagenic call [13]: inactive; negative
mutagenic call [14]: inactive; negative
mutagenic call [15]: inactive; negative
mutagenic call [16]: inactive; negative
mutagenic call [17]: inactive; negative
mutagenic call [18]: inactive; negative
mutagenic call [19]: inactive; negative

O=Nn1cc(CC(O)C(=O)O)c2ccccc21 (configuration not stated)
mutagenic call [1]: active; positive

O=[N+]([O-])c1ccc2c3c(c4cccc5ccc1c2c54)CCCC3
mutagenic call [1]: active; positive
mutagenic call [2]: active; positive

NNc1nnc(NN)c2ccccc12
mutagenic call (Test System: AMES SALMONELLA TYPHIMURIUM, Strain/Indicator: TA97, Metabolic Activation: NONE, Method: STANDARD PLATE): active; positive
mutagenic call [2]: active; positive
mutagenic call [4]: inactive; negative
mutagenic call (Test System: AMES SALMONELLA TYPHIMURIUM, Strain/Indicator: TA102, Metabolic Activation: NONE, Method: STANDARD PLATE): active; positive
mutagenic call (Test System: AMES SALMONELLA TYPHIMURIUM, Strain/Indicator: TA104, Metabolic Activation: NONE, Method: STANDARD PLATE): inactive; negative
mutagenic call [5]: inactive; negative
mutagenic call [6]: active; positive
mutagenic call [7]: active; positive
mutagenic call (Test System: AMES SALMONELLA TYPHIMURIUM, Strain/Indicator: TA1538, Metabolic Activation: NONE, Method: STANDARD PLATE): active; positive

CNP(=O)(N(C)C)N(C)C
mutagenic call (Test System: AMES SALMONELLA TYPHIMURIUM, Strain/Indicator: TA100, Metabolic Activation: NONE, Method: SUSPENSION): inactive; negative
mutagenic call (Test System: AMES SALMONELLA TYPHIMURIUM, Strain/Indicator: TA100, Metabolic Activation: RAT, LIVER, S-9, AROCLOR 1254, Method: SUSPENSION): active; positive

CCCCCCCCCCCCCCCCCCN
mutagenic call [8]: inactive; negative
mutagenic call [9]: inactive; negative
mutagenic call [10]: inactive; negative
mutagenic call [11]: inactive; negative
mutagenic call [12]: inactive; negative
mutagenic call (Test System: AMES SALMONELLA TYPHIMURIUM, Strain/Indicator: TA98, Metabolic Activation: RAT LIVER S-9, PHENOBARBITAL AND BETA-NAPHTHOFLAVONE, Method: PREINCUBATION): inactive; negative
mutagenic call [13]: inactive; negative
mutagenic call [14]: inactive; negative
mutagenic call [15]: inactive; negative
mutagenic call (Test System: AMES SALMONELLA TYPHIMURIUM, Strain/Indicator: TA100, Metabolic Activation: RAT LIVER S-9, PHENOBARBITAL AND BETA-NAPHTHOFLAVONE, Method: PREINCUBATION): inactive; negative
mutagenic call [16]: inactive; negative
mutagenic call [17]: inactive; negative
mutagenic call [18]: inactive; negative
mutagenic call (Test System: AMES SALMONELLA TYPHIMURIUM, Strain/Indicator: TA1535, Metabolic Activation: RAT LIVER S-9, PHENOBARBITAL AND BETA-NAPHTHOFLAVONE, Method: PREINCUBATION): inactive; negative
mutagenic call [19]: inactive; negative
mutagenic call (Test System: AMES SALMONELLA TYPHIMURIUM, Strain/Indicator: TA1537, Metabolic Activation: NONE, Method: PREINCUBATION): inactive; negative
mutagenic call (Test System: AMES SALMONELLA TYPHIMURIUM, Strain/Indicator: TA1537, Metabolic Activation: RAT LIVER S-9, PHENOBARBITAL AND BETA-NAPHTHOFLAVONE, Method: PREINCUBATION): inactive; negative
mutagenic call (Test System: E.COLI, Strain/Indicator: WP2UVRA/PKM101, Metabolic Activation: NONE, Method: PREINCUBATION): inactive; negative
mutagenic call (Test System: E.COLI, Strain/Indicator: WP2UVRA/PKM101, Metabolic Activation: RAT LIVER S-9, PHENOBARBITAL AND BETA-NAPHTHOFLAVONE, Method: PREINCUBATION): inactive; negative
